Patent publication EP4755888A1 (ILAb Co., Ltd., priority 2023, dated 2025)

target: PD-1/PD-L1 (Homo sapiens, UniProt Q9NZQ7); assay: TR-FRET PD-1/PD-L1 binding inhibition at the molecular level (free proteins); conditions: Tag1-PD-L1 and Tag2-PD-1 proteins, twelve concentrations from 200 nM, 2 hours at room temperature, read-out: FRET assay (IC50)
Summary of the method: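 HTRF read-out at 665/620 nm after 2 h at room temperature. Detection used anti-Tag1 Eu cryptate plus anti-Tag2 XL665 antibodies. Tagged PD-L1 and PD-1 proteins were pre-mixed with compound across twelve […] 1:2 dilutions starting at 200 nM.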

Sequence of PD-1/PD-L1 (Q9NZQ7 19-238 limits assumed): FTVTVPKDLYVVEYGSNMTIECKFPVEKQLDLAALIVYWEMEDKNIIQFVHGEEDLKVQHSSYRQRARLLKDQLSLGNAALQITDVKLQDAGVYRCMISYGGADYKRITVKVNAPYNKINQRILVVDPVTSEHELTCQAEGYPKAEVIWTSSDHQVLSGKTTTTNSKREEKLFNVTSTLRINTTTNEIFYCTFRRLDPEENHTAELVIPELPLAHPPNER

Question: With `Cc1c(NC(=O)c2cc3n(n2)CCCC3NC(C)(C)C(=O)O)cccc1-c1cccc(NC(=O)c2nc3c(n2C)CCN(CCC24CCC(C(=O)O)(CC2)C4)C3)c1C` (stereo not shown) [Compound 51, 4-(2-(2-((3'-(4-((2-carboxypropan-2-yl)amino)-4,5,6,7-tetrahydropyrazolo[1,5-a]pyridine-2-carboxamido)-2,2'-dimethyl-[1,1'-biphenyl]-3-yl)carbamoyl)-1-methyl-6,7-dihydro-1H-imidazo[4,5-c]pyridin-5(4H)-yl)ethyl)bicyclo[2.2.1]heptane-1-carboxylic acid] as the compound, how does the IC50 read?
Answer: The IC50 was < 10 nM.

Question: `CC(=O)NCCNC1CCCn2nc(C(=O)Nc3cccc(-c4cccc(NC(=O)c5nc6c(n5C)CCN(CCC57CCC(C(=O)O)(CC5)C7)C6)c4Cl)c3Cl)cc21` (stereo not shown) [Compound 52, 4-(2-(2-((3'-(4-((2-acetamidoethyl)amino)-4,5,6,7-tetrahydropyrazolo[1,5-a]pyridine-2-carboxamido)-2,2'-dichloro-[1,1'-biphenyl]-3-yl)carbamoyl)-1-methyl-6,7-dihydro-1H-imidazo[4,5-c]pyridin-5(4H)-yl)ethyl)bicyclo[2.2.1]heptane-1-carboxylic acid] was tested. Which IC50 did it give?
Answer: Its IC50 is < 10 nM.

Question: With `Cn1c(C(=O)Nc2cccc(-c3cccc(NC(=O)c4cc5n(n4)CCCC5NCCO)c3Cl)c2Cl)nc2c1CCN(CCC13CCC(C(=O)O)(CC1)C3)C2` (stereo not shown) [Compound 53, 4-(2-(2-((2,2'-dichloro-3'-(4-((2-hydroxyethyl)amino)-4,5,6,7-tetrahydropyrazolo[1,5-a]pyridine-2-carboxamido)-[1,1'-biphenyl]-3-yl)carbamoyl)-1-methyl-6,7-dihydro-1H-imidazo[4,5-c]pyridin-5(4H)-yl)ethyl)bicyclo[2.2.1]heptane-1-carboxylic acid] as the compound, how does the IC50 read?
Answer: The IC50 was < 10 nM.

Question: For `Cn1c(C(=O)Nc2cccc(-c3cccc(NC(=O)c4cc5n(n4)CCCC5NC[C@@H]4CCC(=O)N4)c3Cl)c2Cl)nc2c1CCN(CCC13CCC(C(=O)O)(CC1)C3)C2` (stereo partly drawn) [Compound 54, 4-(2-(2-((2,2'-dichloro-3'-(4-((((S)-5-oxopyrrolidin-2-yl)methyl)amino)-4,5,6,7-tetrahydropyrazolo[1,5-a]pyridine-2-carboxamido)-[1,1'-biphenyl]-3-yl)carbamoyl)-1-methyl-6,7-dihydro-1H-imidazo[4,5-c]pyridin-5(4H)-yl)ethyl)bicyclo[2.2.1]heptane-1-carboxylic acid], which IC50 is on record?
Answer: Its IC50 is 10 to 100 nM.

Question: How did the IC50 turn out when `Cn1c(C(=O)Nc2cccc(-c3cccc(NC(=O)c4cc5n(n4)CCCC5NCC(=O)O)c3Cl)c2Cl)nc2c1CCN(CCC13CCC(C(=O)O)(CC1)C3)C2` (stereo not shown) [Compound 56, 4-(2-(2-((3'-(4-((carboxymethyl)amino)-4,5,6,7-tetrahydropyrazolo[1,5-a]pyridine-2-carboxamido)-2,2'-dichloro-[1,1'-biphenyl]-3-yl)carbamoyl)-1-methyl-6,7-dihydro-1H-imidazo[4,5-c]pyridin-5(4H)-yl)ethyl)bicyclo[2.2.1]heptane-1-carboxylic acid] was run?
Answer: Its IC50 is < 10 nM.

Question: For `Cn1c(C(=O)Nc2cccc(-c3cccc(NC(=O)c4cc5n(n4)CCCC5N4CC[C@@H](C(=O)O)C4)c3Cl)c2Cl)nc2c1CCN(CCC13CCC(C(=O)O)(CC1)C3)C2` (stereo partly drawn) [Compound 57, (3R)-1-(2-((3'-(5-(2-(4-carboxybicyclo[2.2.1]heptan-1-yl)ethyl)-1-methyl-4,5,6,7-tetrahydro-1H-imidazo[4,5-c]pyridine-2-carboxamido)-2,2'-dichloro-[1,1'-biphenyl]-3-yl)carbamoyl)-4,5,6,7-tetrahydropyrazolo[1,5-a]pyridin-4-yl)pyrrolidine-3-carboxylic acid], which IC50 is on record?
Answer: The IC50 was < 10 nM.

Question: How did the IC50 turn out when `Cn1c(C(=O)Nc2cccc(-c3cccc(NC(=O)c4cc5n(n4)CCCC5N4CCC(O)CC4)c3Cl)c2Cl)nc2c1CCN(CCC13CCC(C(=O)O)(CC1)C3)C2` (stereo not shown) [Compound 58, 4-(2-(2-((2,2'-dichloro-3'-(4-(4-hydroxypiperidin-1-yl)-4,5,6,7-tetrahydropyrazolo[1,5-a]pyridine-2-carboxamido)-[1,1'-biphenyl]-3-yl)carbamoyl)-1-methyl-6,7-dihydro-1H-imidazo[4,5-c]pyridin-5(4H)-yl)ethyl)bicyclo[2.2.1]heptane-1-carboxylic acid] was run?
Answer: The IC50 was 10 to 100 nM.

Question: `Cn1c(C(=O)Nc2cccc(-c3cccc(NC(=O)c4cc5n(n4)CCCC5N4CCC(C(=O)O)CC4)c3Cl)c2Cl)nc2c1CCN(CCC13CCC(C(=O)O)(CC1)C3)C2` (stereo not shown) [Compound 59, 1-(2-((3'-(5-(2-(4-carboxybicyclo[2.2.1]heptan-1-yl)ethyl)-1-methyl-4,5,6,7-tetrahydro-1H-imidazo[4,5-c]pyridine-2-carboxamido)-2,2'-dichloro-[1,1'-biphenyl]-3-yl)carbamoyl)-4,5,6,7-tetrahydropyrazolo[1,5-a]pyridin-4-yl)piperidine-4-carboxylic acid] was tested. Which IC50 did it give?
Answer: The IC50 was < 10 nM.

Question: Which IC50 does the source give for `Cn1c(C(=O)Nc2cccc(-c3cccc(NC(=O)c4cc5n(n4)CCCC5NC(C)(C)C(=O)O)c3Cl)c2Cl)nc2c1CCN(CCC13CCC(C(=O)O)(CC1)C3)C2` (stereo not shown) [Compound 60, 4-(2-(2-((3'-(4-((2-carboxypropan-2-yl)amino)-4,5,6,7-tetrahydropyrazolo[1,5-a]pyridine-2-carboxamido)-2,2'-dichloro-[1,1'-biphenyl]-3-yl)carbamoyl)-1-methyl-6,7-dihydro-1H-imidazo[4,5-c]pyridin-5(4H)-yl)ethyl)bicyclo[2.2.1]heptane-1-carboxylic acid] here?
Answer: The IC50 was < 10 nM.

Question: With `Cc1c(NC(=O)c2cc3n(n2)CCCC3O)cccc1-c1cccc(-c2nc3cc(CN4CC[C@@H](C(=O)O)C4)cc(C#N)c3o2)c1C` (stereo partly drawn) [Compound 61, (3R)-1-((7-cyano-2-(3'-(4-hydroxy-4,5,6,7-tetrahydropyrazolo[1,5-a]pyridine-2-carboxamido)-2,2'-dimethyl-[1,1'-biphenyl]-3-yl)benzo[d]oxazol-5-yl)methyl)pyrrolidine-3-carboxylic acid] as the compound, how does the IC50 read?
Answer: The IC50 was < 10 nM.

Question: For `CC(=O)NCCNC1CCCn2nc(C(=O)Nc3cccc(-c4cccc(-c5nc6cc(CN7CC[C@@H](C(=O)O)C7)cc(C#N)c6o5)c4C)c3C)cc21` (stereo partly drawn) [Compound 62, (3R)-1-((2-(3'-(4-((2-acetamidoethyl)amino)-4,5,6,7-tetrahydropyrazolo[1,5-a]pyridine-2-carboxamido)-2,2'-dimethyl-[1,1'-biphenyl]-3-yl)-7-cyanobenzo[d]oxazol-5-yl)methyl)pyrrolidine-3-carboxylic acid], which IC50 is on record?
Answer: Its IC50 is < 10 nM.

Question: For `Cc1c(NC(=O)c2cc3n(n2)CCCC3NCCO)cccc1-c1cccc(-c2nc3cc(CN4CC[C@@H](C(=O)O)C4)cc(C#N)c3o2)c1C` (stereo partly drawn) [Compound 64, (3R)-1-((7-cyano-2-(3'-(4-((2-hydroxyethyl)amino)-4,5,6,7-tetrahydropyrazolo[1,5-a]pyridine-2-carboxamido)-2,2'-dimethyl-[1,1'-biphenyl]-3-yl)benzo[d]oxazol-5-yl)methyl)pyrrolidine-3-carboxylic acid], which IC50 is on record?
Answer: The IC50 was < 10 nM.

Question: For `Cc1c(NC(=O)c2cc3n(n2)CCCC3NC[C@@H]2CCC(=O)N2)cccc1-c1cccc(-c2nc3cc(CN4CC[C@@H](C(=O)O)C4)cc(C#N)c3o2)c1C` (stereo partly drawn) [Compound 65, (3R)-1-((7-cyano-2-(2,2'-dimethyl-3'-(4-((((S)-5-oxopyrrolidin-2-yl)methyl)amino)-4,5,6,7-tetrahydropyrazolo[1,5-a]pyridine-2-carboxamido)-[1,1'-biphenyl]-3-yl)benzo[d]oxazol-5-yl)methyl)pyrrolidine-3-carboxylic acid], which IC50 is on record?
Answer: Its IC50 is < 10 nM.

Question: How did the IC50 turn out when `Cc1c(NC(=O)c2cc3n(n2)CCCC3NCC(=O)O)cccc1-c1cccc(-c2nc3cc(CN4CC[C@@H](C(=O)O)C4)cc(C#N)c3o2)c1C` (stereo partly drawn) [Compound 66, (3R)-1-((2-(3'-(4-((carboxymethyl)amino)-4,5,6,7-tetrahydropyrazolo[1,5-a]pyridine-2-carboxamido)-2,2'-dimethyl-[1,1'-biphenyl]-3-yl)-7-cyanobenzo[d]oxazol-5-yl)methyl)pyrrolidine-3-carboxylic acid] was run?
Answer: The IC50 was < 10 nM.

Question: How did the IC50 turn out when `N#Cc1cc(CN2CC[C@@H](C(=O)O)C2)cc2nc(-c3cccc(-c4cccc(NC(=O)c5cc6n(n5)CCCC6O)c4Cl)c3Cl)oc12` (stereo partly drawn) [Compound 67, (3R)-1-((7-cyano-2-(2,2'-dichloro-3'-(4-hydroxy-4,5,6,7-tetrahydropyrazolo[1,5-a]pyridine-2-carboxamido)-[1,1'-biphenyl]-3-yl)benzo[d]oxazol-5-yl)methyl)pyrrolidine-3-carboxylic acid] was run?
Answer: Its IC50 is < 10 nM.

Question: How did the IC50 turn out when `N#Cc1cc(CN2CC[C@@H](C(=O)O)C2)cc2nc(-c3cccc(-c4cccc(NC(=O)c5cc6n(n5)CCCC6NC[C@@H]5CCC(=O)N5)c4Cl)c3Cl)oc12` (stereo partly drawn) [Compound 68, (3R)-1-((7-cyano-2-(2,2'-dichloro-3'-(4-((((S)-5-oxopyrrolidin-2-yl)methyl)amino)-4,5,6,7-tetrahydropyrazolo[1,5-a]pyridine-2-carboxamido)-[1,1'-biphenyl]-3-yl)benzo[d]oxazol-5-yl)methyl)pyrrolidine-3-carboxylic acid] was run?
Answer: Its IC50 is < 10 nM.

Question: For `CC(=O)NCCNC1CCCn2nc(C(=O)Nc3cccc(-c4cccc(-c5nc6cc(CN7CC[C@@H](C(=O)O)C7)cc(C#N)c6o5)c4Cl)c3Cl)cc21` (stereo partly drawn) [Compound 69, (3R)-1-((2-(3'-(4-((2-acetamidoethyl)amino)-4,5,6,7-tetrahydropyrazolo[1,5-a]pyridine-2-carboxamido)-2,2'-dichloro-[1,1'-biphenyl]-3-yl)-7-cyanobenzo[d]oxazol-5-yl)methyl)pyrrolidine-3-carboxylic acid], which IC50 is on record?
Answer: The IC50 was < 10 nM.

Question: How did the IC50 turn out when `N#Cc1cc(CN2CC[C@@H](C(=O)O)C2)cc2nc(-c3cccc(-c4cccc(NC(=O)c5cc6n(n5)CCCC6NCCO)c4Cl)c3Cl)oc12` (stereo partly drawn) [Compound 70, (3R)-1-((7-cyano-2-(2,2'-dichloro-3'-(4-((2-hydroxyethyl)amino)-4,5,6,7-tetrahydropyrazolo[1,5-a]pyridine-2-carboxamido)-[1,1'-biphenyl]-3-yl)benzo[d]oxazol-5-yl)methyl)pyrrolidine-3-carboxylic acid] was run?
Answer: Its IC50 is < 10 nM.

Question: `Cc1c(NC(=O)c2ccc(CNCCO)cn2)cccc1-c1cccc(NC(=O)c2cc3n(n2)CCCC3O)c1C` (stereo not shown) [Compound 71, 4-hydroxy-N-(3'-(5-(((2-hydroxyethyl)amino)methyl)picolinamido)-2,2'-dimethyl-[1,1'-biphenyl]-3-yl)-4,5,6,7-tetrahydropyrazolo[1,5-a]pyridine-2-carboxamide] was tested. Which IC50 did it give?
Answer: The IC50 was < 10 nM.
